In patent US11793782B2, “Therapeutic agents for neurodegenerative diseases” (priority 2017, dated 2023):

Experiments:
Npc1−/− and Npc1+/+ mice = assay: Motor function analysis (Open Field Activity Monitor), NPC mouse study; type: in vivo; conditions: 0.1 g/kg from weaning, nine weeks of age
Protocol: Separate groups of Npc1^−/− and Npc1^+/+ mice were left untreated, as controls. Motor function analysis was performed on mice at eight and nine weeks of age using an Open Field Activity Monitor according to manufacturer's instructions (Linton Instruments, Amlogger Software). Each mouse was placed in a plastic cage with bedding and analysed for five minutes. Rears were counted manually. Motor function parameters measured were: • 1. Centre Rearing: mice rearing on hind legs unsupported; • 2. Rearing: mice rearing on hind legs with and without the support of cage walls; • 3. Activity: regular movement of the animal including walks; • 4. Front to Back (FR) count: movement of the animal from front to back of the cage; • 5. Active Time: duration (s/min) of activeness regardless of movement; • 6. Mobile Time: duration (s/min) of mobility; • 7. Rearing Time: duration of any rearing. Results Coat Condition

[1] = test system: ataxia with oculomotor apraxia type 4 patients; assay: Case study, ataxia with oculomotor apraxia type 4; type: in vivo, human; conditions: AOA4 youngest sibling; on treatment
Description: In this case study, four patients (male siblings) suffered from, and were later diagnosed with, ataxia with oculomotor apraxia type 4. The older three siblings […], at the time of disease onset. […] The older siblings began treatment with acetyl-leucine […], respectively, and have been on the treatment for approximately four years. No long-term clinical data is available for these three patients.
The youngest sibling was […] at the time of onset. […] No long-term clinical data is available for the youngest sibling.

[2] = test system: Lewy Body dementia patient; assay: Case study, Lewy Body dementia; type: in vivo, human
Protocol: The patient started taking acetyl-leucine (3 g/day for one week; 5 g/day thereafter) and was evaluated after four weeks. […] Medication was reduced to 3 g/day, and the patient was instructed to stop medication about two weeks later.

[3] = test system: frontotemporal dementia with parkinsonism patient; assay: Case study, frontotemporal dementia with parkinsonism; type: in vivo, human; conditions: frontotemporal dementia with parkinsonism
Description: After approximately one month of acetyl-leucine treatment, medication was stopped and the patient was re-examined 13 days later.

[4] = test system: Hexb−/− mouse (Sandhoff disease model); assay: Bar crossing test, Sandhoff mouse; type: in vivo; conditions: 0.1 g/kg body weight from 3 weeks of age
Description: The bar crossing test is a method for assessing motor function in mice in which the mouse is placed hanging from the centre of a horizontal bar by its front limbs. A wild-type mouse with normal motor function will be able to engage its hind limbs and thereby move to one of the platforms at either end of the bar, and in doing so complete the test. An untreated Sandhoff mouse is able to complete the test up until around 11 weeks of age. After this point motor function and hind-limb mobility/engagement have deteriorated to the point to which the mouse cannot complete the test, and will drop from the bar onto the padded surface below. […] In FIG. 7 B, acetyl-leucine treatment of 0.1 g/kg body weight was provided from 3 weeks of age. The acetyl-leucine treated Sandhoff mice retained the ability to complete the test up to 13 weeks of age (inclusive). Data shown is the mean of 6 mice per group. […]

[5] = after 1 week on acetyl-DL-leucine
[6] = after 4 weeks on acetyl-DL-leucine

Q: With `CC(=O)NC(CC(C)C)C(=O)O` (racemic) [acetyl-DL-leucine] as the compound, how does the “Motor function vs untreated littermates” value (Npc1−/− and Npc1+/+ mice) read?
A: significantly improved motor function

Q: And the “Mother's report compared to older siblings at each age” value [1]?
A: improved fine motor skills and improved speech

Q: What about the Patient report ([2]; 5 g/day, after four weeks) of the same compound?
A: increased fatigue and a deterioration of balance and speech

Q: What about the “Coefficient of variation (temporal)” value [2, 5] of the same compound?
A: 9.1

Q: What about the Double stance [2, 5] of the same compound?
A: 36.1%

Q: What about the Max. speed [2, 5] of the same compound?
A: 92 cm/s

Q: What about the Step cycle length [2, 5] of the same compound?
A: 81 cm

Q: And the Track width [2, 5]?
A: 4.6 cm

Q: And the cadence [2, 5]?
A: 81 steps/minute

Q: And the speed [2, 5]?
A: 55 cm/s

Q: What about the “Coefficient of variation (temporal)” value [2, 6] of the same compound?
A: 8.8

Q: What about the Double stance [2, 6] of the same compound?
A: 38.7%

Q: What about the “Functional Gait Assessment” value [2, 6] of the same compound?
A: 11/30

Q: And the Max. speed [2, 6]?
A: 74 cm/s

Q: And the Step cycle length [2, 6]?
A: 79 cm

Q: And the Track width [2, 6]?
A: 6.7 cm

Q: What about the cadence [2, 6] of the same compound?
A: 85 steps/minute

Q: What about the speed [2, 6] of the same compound?
A: 56 cm/s

Q: And the Patient report ([2]; decreased dose 3 g/day, re-evaluated about one month after ceasing)?
A: did not report improvement of symptomatology

Q: What about the Gait ([3]; 5 gram per day, approximately one month of treatment) of the same compound?
A: significant improvement of gait

Q: What about the “Symptoms after suspension of treatment” value ([3]; re-examined 13 days after stopping) of the same compound?
A: symptoms worsened

Q: And the Speech ([3]; under therapy)?
A: improvement of speech

Q: And the Falls ([3]; under therapy, before 2-3 falls per month)?
A: falls stopped

Q: What about the “Age up to which ability to complete the bar crossing test was retained” value ([4]; Sandhoff mice, untreated around 11 weeks) of the same compound?
A: up to 13 weeks of age

Q: What about the “Motor function in bar-crossing test” value ([4]; Sandhoff mouse model) of the same compound?
A: improved motor function and hind-limb mobility/engagement
